Data on 33 compounds can be found in patent publication US6472418B1, “Non-peptide NK1 receptors antagonists” (Warner-Lambert Company, priority 1998, dated 2002).

By IC50 is commonly meant the concentration needed to halve the response being measured.

T1 sequence (P25103 whole entry): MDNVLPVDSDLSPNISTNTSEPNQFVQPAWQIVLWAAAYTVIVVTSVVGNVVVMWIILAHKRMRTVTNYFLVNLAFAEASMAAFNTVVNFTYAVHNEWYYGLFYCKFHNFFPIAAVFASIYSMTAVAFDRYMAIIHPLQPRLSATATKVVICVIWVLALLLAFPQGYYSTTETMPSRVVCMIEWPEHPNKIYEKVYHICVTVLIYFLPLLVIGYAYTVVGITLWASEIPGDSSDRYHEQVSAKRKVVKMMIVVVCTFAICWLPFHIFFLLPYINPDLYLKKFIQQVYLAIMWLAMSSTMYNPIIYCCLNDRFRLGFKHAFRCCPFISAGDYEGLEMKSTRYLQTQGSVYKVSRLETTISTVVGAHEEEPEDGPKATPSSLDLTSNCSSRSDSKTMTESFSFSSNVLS

One experiment concerns the target T1, Human NK1 Receptor (Homo sapiens, UniProt P25103).
T1 construct: endogenous in cells; host or cells: Human lymphoma IM9 cells (whole cells)
In words: In Vitro Human NK1 Receptor Binding Assay ([125I]Bolton-Hunter substance P displacement, IM9 cells). Conditions: Human lymphoma IM9 cells, [125I]Bolton-Hunter substance P (0.05-0.1 nM), 50 min at 21° C.; Table 1; read-out: NK1 binding IC50. The protocol: They have been evaluated in an NK1-receptor binding assay which is described below.
Human lymphoma IM9 cells were grown in RPMI 1640 culture medium supplemented with 10% fetal calf serum and 2 mM glutamine and maintained under an atmosphere of 5% CO2. Cells were passaged every 3-4 days by reseeding to a concentration of 4-8×10^6/40 ml per 175 cm^2 flask. Cells were harvested for experiments by centrifugation at 1000 g for 3 min. Pelleted cells were washed once by resuspension into assay buffer (50 mM Tris HCl pH 7.4, 3 mM MnCl2, 0.02% BSA, […] bacitracin, […] chymostatin, 2 mM phosphoramidon, […] leupeptin) and repeating the centrifugation step before resuspending at a concentration of 2.5×10^6 cells/mL assay buffer. Cells ([…]) were incubated with [^125I]Bolton-Hunter substance P (0.05-0.1 nM) in the presence and absence of varying concentrations of test compounds for 50 min at 21° C. Non-specific binding (10% of the total binding observed under these conditions) was defined by […] [Sar^9, Met(02)^11] substance P. Reactions were terminated by rapid filtration under vacuum onto GF\C filters presoaked in 0.2% PEI for 1-2 h, using a Brandel cell harvester. Filters were washed with 6×1 ml ice-cold Tris HCl (50 mM, pH 7.4) and radioactivity bound determined using a gamma couter. Results were analyzed using iterative curve fitting procedures in RS1 or Graphpad Inplot.
For `C[C@H](NC(=O)[C@@H](Cc1c[nH]c2ccccc12)NCc1cccc(OC(F)(F)F)c1)c1ccccc1` (relative stereo) [Example 16, 3-(1H-Indol-3-yl)-N-(1-phenyl-ethyl)-2-(3-trifluoromethoxy-benzylamino)-propionamide, [R-(R*,S*)]], the IC50 was found to be 9.1 nM.
Same read-out and setting: the value for `C[C@H](NC(=O)[C@@H](Cc1c[nH]c2ccccc12)NCc1cccc(SC(F)(F)F)c1)c1ccccc1` (relative stereo) [Example 13, 3-(1H-Indol-3-yl)-N-(1-phenyl-ethyl)-2-(3-trifluoromethylsulfanyl-benzylamino)-propionamide, [R-(R*,S*)]] was 35 nM; that for `Cc1cc(CN[C@H](Cc2c[nH]c3ccccc23)C(=O)N[C@@H](C)c2ccccc2)oc1C` (relative stereo) [Example 8, 2-[(4,5-Dimethyl-furan-2-ylmethyl)-amino]-3-(1H-indol-3-yl)-N-(1-phenyl-ethyl)-propionamide, [R-(R*,S*)]] was 27 nM.

Staying with this experiment, now noted: Human lymphoma IM9 cells, [125I]Bolton-Hunter substance P; Table 3, array-synthesis products; read-out: IC50 (nM) hNK1.
In the case of `O=C(NCC1CCCO1)C(Cc1c[nH]c2ccccc12)NCc1cc2ccccc2o1` (stereo not drawn) [Example 223, 2-[(Benzofuran-2-ylmethyl)-amino]-3-(1H-indol-3-yl)-N-(tetrahydro-furan-2-ylmethyl)-propionamide], the IC50 was over 10000 nM.
On the same count and under the same terms, to `O=C(NCCc1c[nH]c2ccccc12)C(Cc1c[nH]c2ccccc12)NCc1cc2ccccc2o1` (stereo not drawn) [Example 280, 2-[(Benzofuran-2-ylmethyl)-amino]-3-(1H-indol-3-yl)-N-[2-(1H-indol-3-yl)-ethyl]-propionamide] belongs 2540 nM.
Take `O=C(NC1CCCCC1O)C(Cc1c[nH]c2ccccc12)NCc1cc2ccccc2o1` (stereo not drawn) [Example 270, 2-[(Benzofuran-2-ylmethyl)-amino]-N-(2-hydroxy-cyclohexyl)-3-(1H-indol-3-yl)-propionamide]: the IC50 is over 10000 nM.
In the case of `O=C(NC1CCc2ccccc2C1)C(Cc1c[nH]c2ccccc12)NCc1cc2ccccc2o1` (stereo not drawn) [Example 253, 2-[(Benzofuran-2-ylmethyl)-amino]-3-(1H-indol-3-yl)-N-(1,2,3,4-tetrahydro-naphthalen-2-yl)-propionamide], the IC50 was determined as 3330 nM.
With `O=C(NCc1cccc([N+](=O)[O-])c1)C(Cc1c[nH]c2ccccc12)NCc1cc2ccccc2o1` (stereo not drawn) [Example 260, 2-[(Benzofuran-2-ylmethyl)-amino]-3-(1H-indol-3-yl)-N-(3-nitro-benzyl)-propionamide], the IC50 came to 14 nM.
`COc1ccc(CCNC(=O)C(Cc2c[nH]c3ccccc23)NCc2cc3ccccc3o2)cc1` (stereo not drawn) [Example 271, 2-[(Benzofuran-2-ylmethyl)-amino]-3-(1H-indol-3-yl)-N-[2-(4-methoxy-phenyl)-ethyl]-propionamide]: the IC50 was 196 nM.
The same measure, in the same setting: to `CC(NC(=O)C(Cc1c[nH]c2ccccc12)NCc1cc2ccccc2o1)c1ccc(N(C)C)cc1` (stereo not drawn) [Example 217, 2-[(Benzofuran-2-ylmethyl)-amino]-N-[1-(4-dimethylamino-phenyl)-ethyl]-3-(1H-indol-3-yl)-propionamide] belongs 819 nM.
Same read-out and setting: the value for `CC(C)(NC(=O)C(Cc1c[nH]c2ccccc12)NCc1cc2ccccc2o1)C1CCCCC1` (stereo not drawn) [Example 225, 2-[(Benzofuran-2-ylmethyl)-amino]-N-(1-cyclohexyl-1-methyl-ethyl)-3-(1H-indol-3-yl)-propionamide] was 1340 nM.

The same experiment, now with this note: Table 4; [125I]Bolton-Hunter substance P displacement, human IM9 cells; read-out: IC50 (nM) hNK1.
`CC(NC(=O)C(C)(Cc1c[nH]c2ccccc12)NCc1ccc(C=Cc2ccccc2)cc1)c1ccccc1` (stereo not drawn) [compound 351, 3-(1H-Indol-3-yl)-2-methyl-N-(1-phenyl-ethyl)-2-(4-styryl-benzylamino)-propionamide]: the IC50 is over 10000 nM.
The same measure, in the same setting: to “2-[3-(4-Benzyloxy-phenyl)-allylamino]-3-(1H-indol-3-yl)-2-methyl-N-(1-phenyl-ethyl)-propionamide [compound 340]” belongs 4910 nM; to “2-(4-Chloro-3-sulfamoyl-benzylamino)-3-(1H-indol-3-yl)-2-methyl-N-(1-phenyl-ethyl)-propionamide [compound 336]”, 4230 nM; to `CC(NC(=O)C(C)(Cc1c[nH]c2ccccc12)NCc1c2ccccc2cc2ccccc12)c1ccccc1` (stereo not drawn) [compound 346, 2-[(Anthracen-9-ylmethyl)-amino]-3-(1H-indol-3-yl)-2-methyl-N-(1-phenyl-ethyl)-propionamide], over 10000 nM.
On the same count and under the same terms, the value for `CCCCCC(=Cc1ccccc1)CNC(C)(Cc1c[nH]c2ccccc12)C(=O)NC(C)c1ccccc1` (stereo not drawn) [compound 356, 3-(1H-Indol-3-yl)-2-methyl-2-(2-pentyl-3-phenyl-allylamino)-N-(1-phenyl-ethyl)-propionamide] was over 10000 nM; that for `CC(NC(=O)C(C)(Cc1c[nH]c2ccccc12)NCc1ccccc1OCc1cccnc1)c1ccccc1` (stereo not drawn) [compound 324, 3-(1H-Indol-3-yl)-2-methyl-N-(1-phenyl-ethyl)-2-[2-(pyridin-3-ylmethoxy)-benzylamino]-propionamide] was 2970 nM; that for `CC(NC(=O)C(C)(Cc1c[nH]c2ccccc12)NCc1ccc2ccccc2c1)c1ccccc1` (stereo not drawn) [compound 309, 3-(1H-Indol-3-yl)-2-methyl-2-[(naphthalen-2-ylmethyl)-amino]-N-(1-phenyl-ethyl)-propionamide] was 169 nM.
For the compound `COc1ccc2oc(CNC(C)(Cc3c[nH]c4ccccc34)C(=O)NC(C)c3ccccc3)cc2c1` (stereo not drawn) [compound 317, 3-(1H-Indol-3-yl)-2-[(5-methoxy-benzofuran-2-ylmethyl)-amino]-2-methyl-N-(1-phenyl-ethyl)-propionamide], the IC50 was over 10000 nM.
On the same count and under the same terms, to `CCOC(=O)Nc1ccccc1CNC(C)(Cc1c[nH]c2ccccc12)C(=O)NC(C)c1ccccc1` (stereo not drawn) [compound 329, (2-{[2-(1H-Indol-3-yl)-1-methyl-1-(1-phenyl-ethylcarbamoyl)-ethylamino]-methyl}-phenyl)-carbamic acid ethyl ester] belongs 4190 nM.

Still in this experiment, the particulars now being: Table 5; [125I]Bolton-Hunter substance P displacement, human IM9 cells; read-out: IC50 (nM) hNK1.
As for `CC(NC(=O)C(Cc1c[nH]c2ccccc12)NCc1ccc(C=Cc2ccccc2)o1)c1ccccc1` (stereo not drawn) [compound 362], the half-maximal inhibitory concentration (IC50) is over 10000 nM.
With `Cc1ccc(S(=O)(=O)Oc2cccc(CNC(Cc3c[nH]c4ccccc34)C(=O)NC(C)c3ccccc3)c2)cc1` (stereo not drawn) [compound 381], the 50% inhibitory concentration (IC50) was over 10000 nM.
Still for that read-out and setting: the value for `Cc1cc(CNC(Cc2c[nH]c3ccccc23)C(=O)NC(C)c2ccccc2)c(C)n1-c1ccccc1` (stereo not drawn) [compound 392] was over 10000 nM.
On the same count and under the same terms, to `CC=C(C)CCC=C(C)CNC(Cc1c[nH]c2ccccc12)C(=O)NC(C)c1ccccc1` (stereo not drawn) [compound 389] belongs 2570 nM.
Same read-out and setting: to `COc1ccc(CNC(Cc2c[nH]c3ccccc23)C(=O)NC(C)c2ccccc2)cc1OC` (stereo not drawn) [compound 397] belongs over 10000 nM.

The same experiment, now with this note: human NK1 receptor, IM9 cells, [125I]Bolton-Hunter substance P; read-out: IC50 (nM) hNK1.
With `CC(Cc1c[nH]c2ccccc12)(NCc1cc2ccccc2o1)C(=O)NCCn1cccc1` (stereo not drawn) [compound 121, 2-[(Benzofuran-2-ylmethyl)-amino]-3-(1H-indol-3-yl)-2-methyl-N-(2-pyrrol-1-yl-ethyl)-propionamide], the IC50 was determined as 654 nM.
Still for that read-out and setting: to `CC(Cc1c[nH]c2ccccc12)(NCc1cc2ccccc2o1)C(=O)NC1Cc2ccccc2C1` (stereo not drawn) [compound 113, 2-[(Benzofuran-2-ylmethyl)-amino]-N-indan-2-yl-3-(1H-indol-3-yl)-2-methyl-propionamide] belongs 463 nM.
Take `CC(Cc1c[nH]c2ccccc12)(NCc1cc2ccccc2o1)C(=O)NC1CCc2ccccc21` (stereo not drawn) [compound 130, 2-[(Benzofuran-2-ylmethyl)-amino]-N-indan-1-yl-3-(1H-indol-3-yl)-2-methyl-propionamide]: the 50% inhibitory concentration (IC50) amounted to 163 nM.
The same measure, in the same setting: to `CC(Cc1c[nH]c2ccccc12)(NCc1cc2ccccc2o1)C(=O)NCC(=O)c1nc[nH]c1N` (stereo not drawn) [compound 95, N-[2-(5-Amino-1H-imidazol-4-yl)-2-oxo-ethyl]-2-[(benzofuran-2-ylmethyl)-amino]-3-(1H-indol-3-yl)-2-methyl-propionamide] belongs over 10000 nM; to `CC(Cc1c[nH]c2ccccc12)(NCc1cc2ccccc2o1)C(=O)NC(CO)Cc1c[nH]cn1` (stereo not drawn) [compound 183, 2-[(Benzofuran-2-ylmethyl)-amino]-N-[1-hydroxymethyl-2-(1H-imidazol-4-yl)-ethyl]-3-(1H-indol-3-yl)-2-methyl-propionamide], over 10000 nM; to `CC(Cc1c[nH]c2ccccc12)(NCc1cc2ccccc2o1)C(=O)NCC1CCCCC1O` (stereo not drawn) [compound 184, 2-[(Benzofuran-2-ylmethyl)-amino]-N-(2-hydroxy-cyclohexylmethyl)-3-(1H-indol-3-yl)-2-methyl-propionamide], over 10000 nM.
On the same count and under the same terms, the value for `CC(Cc1c[nH]c2ccccc12)(NCc1cc2ccccc2o1)C(=O)NCCCN1CCCC1=O` (stereo not drawn) [compound 91] was over 10000 nM.
On the same count and under the same terms, to `CC(Cc1c[nH]c2ccccc12)(NCc1cc2ccccc2o1)C(=O)NCCc1ccccc1` (stereo not drawn) [compound 53, 2-[(Benzofuran-2-ylmethyl)-amino]-3-(1H-indol-3-yl)-2-methyl-N-phenethyl-propionamide] belongs 262 nM.
